Assays:
[1] = Pharmacokinetic studies of compounds in mice; assay type: in vivo; settings: male mice, intragastric administration 10 mg/kg, plasma
Procedure: Activity Assay Example 3: Pharmacokinetic Studies of Compounds in Mice
In this test, 3 male mice were selected and divided into 1 group, 3 mice/group. All animals were fasted overnight before administration.
The intragastric administration dose was 10 mg/kg, and the administration volume was 10 mL/kg.
2.2 Preparation of Drug Solution
According to the animal body weight combined with the administration dose, the amount of the required drug solution was calculated. An appropriate amount of the test substance was weighed, added with 5% of the final volume of ethanol for dissolution, then added with 5% of the final volume of SolutolHS15, and finally added with PBS to the final volume, and mixed by vortex and fully dissolved to obtain a solution for intragastric administration (1 mg/mL). All solutions were prepared for immediate use.
2.3 Method of Administration
Before administration, the drug solution was placed on a magnetic stirrer in the animal laboratory and stirred for at least 10 min. During the administration process, vortex was continued to ensure uniformity of the drug solution. The theoretical volume of gavage administration was 10 mL/kg, which was administered with a syringe equipped with a gavage needle.
Before administration, the animals were weighed and the body weight of the animals involved in the experiment was recorded, and the administration volume of each animal was calculated according to the body weight. After administration, animals were promptly transferred back to the experimental cages to collect samples.
2.4 Observation of Animal Status
After administration, whether animals had abnormal reactions was observed immediately. If there were no abnormal reactions, animals were observed twice a day during the experiment. If abnormal reactions were found, they should be recorded in time, and the number of observations should be increased until the animals returned to normal or to the end of the experiment.
2.5 Sample Collection and Preservation
All experimental animals were fasted overnight before administration, and blood was collected at corresponding time points into blood collection tubes containing heparin sodium anticoagulant. After the whole blood was collected, the blood collection tube was gently shaken and placed on ice immediately, and then centrifuged (4° C., 4000 rpm, 10 min) to collect supernatant plasma samples, which were stored in a refrigerator at −80° C. before analysis.
2.6 Plasma Sample Processing and Analysis
The collected plasma samples were handed over to the Pharmacokinetic department for sample extraction, and the test substances in the plasma were extracted by protein precipitation method using organic reagents containing internal standards (acetonitrile:plasma=4:1, v/v). The extracted processed samples were submitted for quantitative concentration analysis by LC-MS/MS. According to the plasma concentration of each animal obtained by the analysis, software Kinetica (version 5.0) was used to calculate the main pharmacokinetic parameter eAUC30-120 according to the non-compartment model to evaluate the exposure amount; the test results are shown in Table 2: […]

[2] = target: T1, AR (Homo sapiens, UniProt P10275, T878A); assay: Effects of compounds on AR expression in LNCaP cells (ELISA, DC50); assay type: cell-based; design: Measurement of the Effects of Drugs on the Expression of AR in Cells by ELISA Method; endogenous in cells; host or cells: LNCaP; settings: 24 hours of drug treatment, AR by ELISA
T1 sequence (P10275 1-920 T878A): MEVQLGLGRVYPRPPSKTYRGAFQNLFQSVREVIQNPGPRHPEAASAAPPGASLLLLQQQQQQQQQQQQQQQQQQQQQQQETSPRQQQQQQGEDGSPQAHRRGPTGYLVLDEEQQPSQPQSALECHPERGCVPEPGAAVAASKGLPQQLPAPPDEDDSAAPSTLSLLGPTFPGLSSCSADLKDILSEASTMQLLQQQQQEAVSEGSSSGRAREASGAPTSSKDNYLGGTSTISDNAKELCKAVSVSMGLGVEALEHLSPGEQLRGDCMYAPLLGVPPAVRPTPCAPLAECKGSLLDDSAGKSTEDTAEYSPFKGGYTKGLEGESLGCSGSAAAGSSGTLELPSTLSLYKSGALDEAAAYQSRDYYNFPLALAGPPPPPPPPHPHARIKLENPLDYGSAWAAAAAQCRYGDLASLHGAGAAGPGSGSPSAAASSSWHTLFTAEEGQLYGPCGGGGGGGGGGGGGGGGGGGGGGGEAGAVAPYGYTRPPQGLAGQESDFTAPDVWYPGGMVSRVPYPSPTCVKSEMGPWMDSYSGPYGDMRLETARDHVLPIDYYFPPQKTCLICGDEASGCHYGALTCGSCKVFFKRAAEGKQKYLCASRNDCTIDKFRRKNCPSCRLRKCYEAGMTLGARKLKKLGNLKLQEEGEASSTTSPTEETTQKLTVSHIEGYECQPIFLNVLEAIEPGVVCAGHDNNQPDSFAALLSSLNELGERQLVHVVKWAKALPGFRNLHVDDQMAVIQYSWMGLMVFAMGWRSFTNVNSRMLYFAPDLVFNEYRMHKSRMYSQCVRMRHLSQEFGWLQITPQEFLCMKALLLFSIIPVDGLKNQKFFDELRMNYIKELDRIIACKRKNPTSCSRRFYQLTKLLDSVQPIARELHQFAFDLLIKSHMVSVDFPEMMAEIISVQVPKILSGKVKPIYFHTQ
Method in brief: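 LNCaP cells at about 15,000/well were treated for 24 h with compound at 0.0001–2 μmol/L final. AR in cell lysates was measured by ELISA (OD450). Inhibition was relative to DMSO control after blank subtraction, and DC50 was calculated from it.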

Structure (SMILES): CC1(C)C(=O)N(c2ccc(C#N)c(C(F)(F)F)c2F)C(=S)N1c1ccc(-c2ccc(OCCNC(=O)COc3cccc4c3C(=O)N(C3CCC(=O)NC3=O)C4=O)c(F)c2)nc1 (centres unmarked) [Compound A35]
- eAUC0.5-2 h [1]: 71 ± 51 ng·h/mL
- DC50 [2]: 117 nM

Structure (SMILES): CC1(C)C(=O)N(c2ccc(C#N)c(C(F)(F)F)c2F)C(=S)N1c1ccc(-c2ccc(OCCNC(=O)COc3cccc4c3C(=O)N(C3CCC(=O)NC3=O)C4=O)c(C#N)c2)nc1 (centres unmarked) [Compound A36]
- eAUC0.5-2 h [1]: 29 ± 12 ng·h/mL
- DC50 [2]: 93 nM

Structure (SMILES): CC1(C)C(=O)N(c2ccc(C#N)c(C(F)(F)F)c2F)C(=S)N1c1ccc(-c2ccc(OC3CCN(C(=O)COc4cccc5c4C(=O)N(C4CCC(=O)NC4=O)C5=O)CC3)cc2)nc1 (centres unmarked) [Compound A37]
- eAUC0.5-2 h [1]: 98 ± 48 ng·h/mL
- DC50 [2]: 18.6 nM

Structure (SMILES): Cc1ncsc1-c1ccc(CNC(=O)[C@@H]2C[C@@H](O)CN2C(=O)[C@@H](NC(=O)COCCCCOc2ccc(-c3ccc(N4C(=S)N(c5ccc(C#N)c(C(F)(F)F)c5F)C(=O)C4(C)C)cn3)cc2F)C(C)(C)C)cc1 [Compound A55]
- eAUC0.5-2 h [1]: 396 ± 79 ng·h/mL
- DC50 [2]: 38.8 nM

Structure (SMILES): Cc1ncsc1-c1ccc(CNC(=O)[C@@H]2C[C@@H](O)CN2C(=O)[C@@H](NC(=O)COCCCCOc2ccc(-c3ccc(N4C(=S)N(c5ccc(C#N)c(C(F)(F)F)c5F)C(=O)C4(C)C)cn3)cc2C#N)C(C)(C)C)cc1 [Compound A57]
- eAUC0.5-2 h [1]: 182 ± 84 ng·h/mL
- DC50 [2]: 31.8 nM

Structure (SMILES): Cc1ncsc1-c1ccc(CNC(=O)[C@@H]2C[C@@H](O)CN2C(=O)[C@@H](NC(=O)COCCCCOc2ccc(-c3ncc(N4C(=S)N(c5ccc(C#N)c(C(F)(F)F)c5F)C(=O)C4(C)C)cc3C(F)(F)F)cc2)C(C)(C)C)cc1 [Compound A62]
- eAUC0.5-2 h [1]: 498 ± 124 ng·h/mL
- DC50 [2]: 80 nM

Structure (SMILES): Cc1ncsc1-c1ccc(CNC(=O)[C@@H]2C[C@@H](O)CN2C(=O)[C@@H](NC(=O)COCCCCOc2ccc(-c3ncc(N4C(=S)N(c5ccc(C#N)c(C(F)(F)F)c5F)C(=O)C4(C)C)cc3F)cc2)C(C)(C)C)cc1 [Compound A63]
- eAUC0.5-2 h [1]: 373 ± 242 ng·h/mL
- DC50 [2]: 37.9 nM

Structure (SMILES): Cc1ncsc1-c1ccc(CNC(=O)[C@@H]2C[C@@H](O)CN2C(=O)[C@@H](N(C)C(=O)COCCCCOc2ccc(-c3ccc(N4C(=S)N(c5ccc(C#N)c(C(F)(F)F)c5F)C(=O)C4(C)C)cn3)cc2)C(C)(C)C)cc1 [Compound A66]
- eAUC0.5-2 h [1]: 525 ± 106 ng·h/mL
- DC50 [2]: 213 nM

Structure (SMILES): Cc1ncsc1-c1ccc(CNC(=O)[C@@H]2C[C@@H](O)CN2C(=O)[C@@H](NC(=O)COCCCCOc2ccc(-c3ncc(N4C(=S)N(c5ccc(C#N)c(C(F)(F)F)c5F)C(=O)C4(C)C)cc3F)cc2F)C(C)(C)C)cc1 [Compound A70]
- eAUC0.5-2 h [1]: 1686 ± 938 ng·h/mL
- DC50 [2]: 62.1 nM

Structure (SMILES): Cc1ncsc1-c1ccc(CNC(=O)[C@@H]2C[C@@H](O)CN2C(=O)[C@@H](NC(=O)COCCOc2ccc(-c3ccc(N4C(=S)N(c5ccc(C#N)c(C(F)(F)F)c5F)C(=O)C4(C)C)cn3)cc2)C(C)(C)C)cc1 [Compound A71]
- eAUC0.5-2 h [1]: 287 ± 135 ng·h/mL
- DC50 [2]: 62.1 nM

Structure (SMILES): Cc1ncsc1-c1ccc(CNC(=O)[C@@H]2C[C@@H](O)CN2C(=O)[C@@H](NC(=O)COCCCOc2ccc(-c3ccc(N4C(=S)N(c5ccc(C#N)c(C(F)(F)F)c5F)C(=O)C4(C)C)cn3)cc2F)C(C)(C)C)cc1 [Compound A72]
- eAUC0.5-2 h [1]: 240 ± 68 ng·h/mL
- DC50 [2]: 35.1 nM

Structure (SMILES): Cc1ncsc1-c1ccc(CNC(=O)[C@@H]2C[C@@H](O)CN2C(=O)[C@@H](NC(=O)COCCCCCOc2ccc(-c3ccc(N4C(=S)N(c5ccc(C#N)c(C(F)(F)F)c5F)C(=O)C4(C)C)cn3)cc2)C(C)(C)C)cc1 [Compound A73]
- eAUC0.5-2 h [1]: 189 ± 108 ng·h/mL
- DC50 [2]: 49.3 nM

Structure (SMILES): Cc1ncsc1-c1ccc(CNC(=O)[C@@H]2C[C@@H](O)CN2C(=O)[C@@H](NC(=O)COCCCCOc2ccc(-c3ncc(N4C(=S)N(c5ccc(C#N)c(C(F)(F)F)c5F)C(=O)C4(C)C)cc3C(F)(F)F)cc2F)C(C)(C)C)cc1 [Compound A74]
- eAUC0.5-2 h [1]: 746 ± 158 ng·h/mL
- DC50 [2]: 77.8 nM

Structure (SMILES): Cc1ncsc1-c1ccc(CNC(=O)[C@@H]2C[C@@H](O)CN2C(=O)[C@@H](NC(=O)COCCCCOc2c(F)cc(-c3ncc(N4C(=S)N(c5ccc(C#N)c(C(F)(F)F)c5F)C(=O)C4(C)C)cc3F)cc2F)C(C)(C)C)cc1 [Compound A77]
- eAUC0.5-2 h [1]: 1354 ± 205 ng·h/mL
- DC50 [2]: 114 nM

Structure (SMILES): Cc1ncsc1-c1ccc(CNC(=O)[C@@H]2C[C@@H](O)CN2C(=O)[C@@H](NC(=O)COCCCCOc2ccc(-c3ncc(N4C(=S)N(c5ccc(C#N)c(C(F)(F)F)c5F)C(=O)C4(C)C)cc3F)cc2C#N)C(C)(C)C)cc1 [Compound A78]
- eAUC0.5-2 h [1]: 187 ± 66 ng·h/mL
- DC50 [2]: 57.4 nM

Structure (SMILES): Cc1ncsc1-c1ccc(CNC(=O)[C@@H]2C[C@@H](O)CN2C(=O)[C@@H](NC(=O)COCCCOCCCCOc2ccc(N3C(=S)N(c4ccc(C#N)c(C(F)(F)F)c4F)C(=O)C3(C)C)cn2)C(C)(C)C)cc1 [Compound A248]
- DC50 [2]: 48.8 nM

Structure (SMILES): Cc1ncsc1-c1ccc(CNC(=O)[C@@H]2C[C@@H](O)CN2C(=O)[C@@H](NC(=O)CCc2ccc(C(=O)Nc3ccc(-c4ccc(N5C(=S)N(c6ccc(C#N)c(C(F)(F)F)c6F)C(=O)C5(C)C)cn4)cc3)cc2)C(C)(C)C)cc1 [Compound A252]
- DC50 [2]: 95.9 nM

Structure (SMILES): Cc1ncsc1-c1ccc(CNC(=O)[C@@H]2C[C@@H](O)CN2C(=O)[C@@H](NC(=O)COCCOCCCCOc2ccc(N3C(=S)N(c4ccc(C#N)c(C(F)(F)F)c4F)C(=O)C3(C)C)cn2)C(C)(C)C)cc1 [Compound A254]
- DC50 [2]: 52.5 nM

Structure (SMILES): Cc1ncsc1-c1ccc(CNC(=O)[C@@H]2C[C@@H](O)CN2C(=O)[C@@H](NC(=O)Cc2ccc(C(=O)Nc3ccc(-c4ncc(N5C(=S)N(c6ccc(C#N)c(C(F)(F)F)c6F)C(=O)C5(C)C)cc4F)c(C(F)(F)F)c3)cc2)C(C)(C)C)cc1 [Compound A256]
- DC50 [2]: 119 nM

Structure (SMILES): Cc1ncsc1-c1ccc(CNC(=O)[C@@H]2C[C@@H](O)CN2C(=O)[C@@H](NC(=O)COc2ncc(N3C(=S)N(c4ccc(C#N)c(C(F)(F)F)c4F)C(=O)C3(C)C)cc2F)C(C)(C)C)cc1 [Compound A264]
- DC50 [2]: 870 nM

Structure (SMILES): Cc1ncsc1-c1ccc(CNC(=O)[C@@H]2C[C@@H](O)CN2C(=O)[C@@H](NC(=O)COCCOCCOc2ncc(N3C(=S)N(c4ccc(C#N)c(C(F)(F)F)c4F)C(=O)C3(C)C)cc2F)C(C)(C)C)cc1 [Compound A265]
- DC50 [2]: 381 nM

Structure (SMILES): Cc1ncsc1-c1ccc(CNC(=O)[C@@H]2C[C@@H](O)CN2C(=O)[C@@H](NC(=O)COCCOCCCOc2ncc(N3C(=S)N(c4ccc(C#N)c(C(F)(F)F)c4F)C(=O)C3(C)C)cc2F)C(C)(C)C)cc1 [Compound A267]
- DC50 [2]: 119 nM

Structure (SMILES): Cc1ncsc1-c1ccc(CNC(=O)[C@@H]2C[C@@H](O)CN2C(=O)[C@@H](NC(=O)COCCOc2ncc(N3C(=S)N(c4ccc(C#N)c(C(F)(F)F)c4F)C(=O)C3(C)C)cc2C(F)(F)F)C(C)(C)C)cc1 [Compound A269]
- DC50 [2]: 766 nM

Source: patent publication US12606552B2, “Bifunctional compound, preparation method therefor, and use thereof” (SUZHOU KINTOR PHARMACEUTICALS, INC., priority 2020, dated 2026)
